Experimental data published in paper PMC5218480 (PLoS ONE, 2017).

Tested on: MV-4-11 cells
Test: Gene expression microarray analysis (Affymetrix PrimeView) and GSEA
Type: cell-based, human
Parameters: RFU PODN (11730768_x_at) / Fold change /veh PODN (11730768_x_at) / RFU LINC00158 (11744669_a_at) / Fold change /veh LINC00158 (11744669_a_at) / RFU DUSP10 (11751237_a_at) / Fold change /veh DUSP10 (11751237_a_at) / RFU ID3 (11757404_x_at) / Fold change /veh ID3 (11757404_x_at) / RFU PLEKHG5 (11737974_s_at) / Fold change /veh PLEKHG5 (11737974_s_at) / RFU LRRC4B (11730491_at) / Fold change /veh LRRC4B (11730491_at) / RFU GIMAP4 (11747438_a_at) / Fold change /veh GIMAP4 (11747438_a_at) / RFU KRT8 (11758183_x_at) / Fold change /veh KRT8 (11758183_x_at) / RFU CNN1 (11734310_a_at) / Fold change /veh CNN1 (11734310_a_at) / RFU VPS37D (11726825_at) / Fold change /veh VPS37D (11726825_at) / RFU C10orf10 (11716522_x_at) / Fold change /veh C10orf10 (11716522_x_at) / RFU KIR2DL2 /// KIR2DL4 /// KIR2DL5A /// KIR2DL5B /// KIR2DS1 /// KIR2DS2 /// KIR2DS3 /// KIR2DS4 /// KIR3DL3 /// KIR3DL3 /// KIR3DS1 (11738374_at) / Fold change /veh KIR2DL2 /// KIR2DL4 /// KIR2DL5A /// KIR2DL5B /// KIR2DS1 /// KIR2DS2 /// KIR2DS3 /// KIR2DS4 /// KIR3DL3 /// KIR3DL3 /// KIR3DS1 (11738374_at) / RFU C1QL1 (11718748_at) / Fold change /veh C1QL1 (11718748_at) / RFU TMPRSS4 (11747572_a_at) / Fold change /veh TMPRSS4 (11747572_a_at) / RFU HAMP (11756126_x_at) / Fold change /veh HAMP (11756126_x_at) / RFU RNFT2 (11725882_a_at) / Fold change /veh RNFT2 (11725882_a_at) / RFU NR4A2 (11747474_a_at) / Fold change /veh NR4A2 (11747474_a_at) / RFU ABCC12 (11746883_a_at) / Fold change /veh ABCC12 (11746883_a_at) / RFU TMEM136 (11760407_x_at) / Fold change /veh TMEM136 (11760407_x_at) / RFU CLDN22 /// WWC2 (11732394_at) / Fold change /veh CLDN22 /// WWC2 (11732394_at) / RFU HLA-DPB1 (11760878_x_at) / Fold change /veh HLA-DPB1 (11760878_x_at) / RFU SPINT1 (11716480_a_at) / Fold change /veh SPINT1 (11716480_a_at) / RFU GAP43 (11754022_s_at) / Fold change /veh GAP43 (11754022_s_at) / RFU A4GNT (11735810_at) / Fold change /veh A4GNT (11735810_at) / RFU PRB3 (11715151_x_at) / Fold change /veh PRB3 (11715151_x_at) / RFU TUBB4B (11761932_at) / Fold change /veh TUBB4B (11761932_at) / RFU CAPN14 (11732068_a_at) / Fold change /veh CAPN14 (11732068_a_at) / RFU TMCC2 (11721928_a_at) / Fold change /veh TMCC2 (11721928_a_at) / RFU IRGQ (11745062_a_at) / Fold change /veh IRGQ (11745062_a_at) / RFU FAM174B (11720279_a_at) / Fold change /veh FAM174B (11720279_a_at) / RFU TMPRSS4 (11748680_a_at) / Fold change /veh TMPRSS4 (11748680_a_at) / RFU FAM212B (11763350_a_at) / Fold change /veh FAM212B (11763350_a_at) / RFU PLEKHG5 (11743358_a_at) / Fold change /veh PLEKHG5 (11743358_a_at) / RFU ZSCAN30 (11745921_a_at) / Fold change /veh ZSCAN30 (11745921_a_at) / RFU CMKLR1 (11741424_a_at) / Fold change /veh CMKLR1 (11741424_a_at) / RFU LOC101060620 /// MAPK8IP1 (11723275_at) / Fold change /veh LOC101060620 /// MAPK8IP1 (11723275_at) / RFU SPTSSB (11747773_x_at) / Fold change /veh SPTSSB (11747773_x_at) / RFU PRSS12 (11739890_at) / Fold change /veh PRSS12 (11739890_at) / RFU BIN1 (11741810_x_at) / Fold change /veh BIN1 (11741810_x_at) / RFU WNT11 (11732464_a_at) / Fold change /veh WNT11 (11732464_a_at) / RFU C10orf10 (11716521_a_at) / Fold change /veh C10orf10 (11716521_a_at) / RFU C5orf56 (11738089_at) / Fold change /veh C5orf56 (11738089_at) / RFU CYB561 (11721691_x_at) / Fold change /veh CYB561 (11721691_x_at) / RFU ANKRD19P (11752326_a_at) / Fold change /veh ANKRD19P (11752326_a_at) / RFU OR2T12 /// OR2T33 /// OR2T8 (11738714_s_at) / Fold change /veh OR2T12 /// OR2T33 /// OR2T8 (11738714_s_at) / RFU VCAN (11748164_a_at) / Fold change /veh VCAN (11748164_a_at) / RFU JSRP1 (11732532_at) / Fold change /veh JSRP1 (11732532_at) / RFU KRTAP10-11 (11738290_x_at) / Fold change /veh KRTAP10-11 (11738290_x_at) / RFU MYO3A (11730013_a_at) / Fold change /veh MYO3A (11730013_a_at) / RFU EBF3 (11725865_a_at) / Fold change /veh EBF3 (11725865_a_at) / RFU CAMK2N1 (11719241_x_at) / Fold change /veh CAMK2N1 (11719241_x_at) / RFU C5orf56 (11738088_a_at) / Fold change /veh C5orf56 (11738088_a_at) / RFU OLFML3 (11715873_a_at) / Fold change /veh OLFML3 (11715873_a_at) / RFU LOC100653217 /// NTM (11731650_a_at) / Fold change /veh LOC100653217 /// NTM (11731650_a_at) / RFU MAPK11 (11762145_a_at) / Fold change /veh MAPK11 (11762145_a_at) / RFU FIZ1 (11724087_x_at) / Fold change /veh FIZ1 (11724087_x_at) / RFU OASL (11726364_x_at) / Fold change /veh OASL (11726364_x_at) / RFU SOX15 (11748057_x_at) / Fold change /veh SOX15 (11748057_x_at) / RFU CD79A (11719716_a_at) / Fold change /veh CD79A (11719716_a_at) / RFU HIST1H1D (11736915_at) / Fold change /veh HIST1H1D (11736915_at) / RFU CASKIN2 (11723855_a_at) / Fold change /veh CASKIN2 (11723855_a_at) / RFU LOC730098 (11760151_x_at) / Fold change /veh LOC730098 (11760151_x_at) / RFU OR4N2 (11742367_at) / Fold change /veh OR4N2 (11742367_at) / RFU PRRT2 (11749266_a_at) / Fold change /veh PRRT2 (11749266_a_at) / RFU SNX32 (11753110_a_at) / Fold change /veh SNX32 (11753110_a_at) / RFU CDHR5 (11726645_a_at) / Fold change /veh CDHR5 (11726645_a_at) / RFU RCAN1 (11760418_a_at) / Fold change /veh RCAN1 (11760418_a_at) / RFU FAM167A (11723789_a_at) / Fold change /veh FAM167A (11723789_a_at) / RFU FAM26E (11764081_at) / Fold change /veh FAM26E (11764081_at) / RFU ISYNA1 (11749810_s_at) / Fold change /veh ISYNA1 (11749810_s_at) / RFU ACY1 (11761880_at) / Fold change /veh ACY1 (11761880_at) / RFU 11764098_at / Fold change /veh 11764098_at / RFU SAMD14 (11745864_x_at) / Fold change /veh SAMD14 (11745864_x_at) / RFU NPB (11741838_a_at) / Fold change /veh NPB (11741838_a_at) / RFU TMPRSS6 (11731388_a_at) / Fold change /veh TMPRSS6 (11731388_a_at) / RFU KRTAP10-2 (11738614_at) / Fold change /veh KRTAP10-2 (11738614_at) / RFU ARHGAP8 /// PRR5-ARHGAP8 (11727945_x_at) / Fold change /veh ARHGAP8 /// PRR5-ARHGAP8 (11727945_x_at) / RFU KRTAP5-7 /// NADSYN1 (11734609_at) / Fold change /veh KRTAP5-7 /// NADSYN1 (11734609_at) / RFU RASL12 (11751679_a_at) / Fold change /veh RASL12 (11751679_a_at) / RFU CDKN2B (11736163_a_at) / Fold change /veh CDKN2B (11736163_a_at) / RFU PRF1 (11729649_at) / Fold change /veh PRF1 (11729649_at) / RFU, ZNF638 /// ZNF638-IT1 / Fold change vs veh, ZNF638 /// ZNF638-IT1 / RFU, PANK3 / Fold change vs veh, PANK3 / RFU, SH3YL1 / Fold change vs veh, SH3YL1 / RFU, ZEB2 / Fold change vs veh, ZEB2 / RFU, NRIP1 / Fold change vs veh, NRIP1 / RFU, PTTG1IP / Fold change vs veh, PTTG1IP / RFU, CAPN2 / Fold change vs veh, CAPN2 / RFU, MED14 / Fold change vs veh, MED14 / RFU, SNORA58 / Fold change vs veh, SNORA58 / RFU, C1orf63 / Fold change vs veh, C1orf63 / RFU, LRRFIP1 / Fold change vs veh, LRRFIP1 / RFU, NDUFAF7 / Fold change vs veh, NDUFAF7 / RFU, SLC12A2 / Fold change vs veh, SLC12A2 / RFU, IBTK / Fold change vs veh, IBTK / RFU, ESF1 / Fold change vs veh, ESF1 / Fold change vs veh, TMEM50B / RFU, TAOK1 / Fold change vs veh, TAOK1 / RFU, ACBD3 / Fold change vs veh, ACBD3 / RFU, TMA16 / Fold change vs veh, TMA16 / RFU, RWDD3 / Fold change vs veh, RWDD3 / RFU, BCAT1 / Fold change vs veh, BCAT1 / RFU, EDEM3 / Fold change vs veh, EDEM3 / RFU, TMEM33 / Fold change vs veh, TMEM33 / RFU, WDR75 / Fold change vs veh, WDR75 / RFU, AHCTF1 / Fold change vs veh, AHCTF1 / RFU, TFRC / Fold change vs veh, TFRC / RFU, ZDHHC17 / Fold change vs veh, ZDHHC17 / RFU, NOM1 / Fold change vs veh, NOM1 / RFU, ARL8B / Fold change vs veh, ARL8B / RFU, ZBTB11 / Fold change vs veh, ZBTB11 / RFU, TAMM41 / Fold change vs veh, TAMM41 / RFU, KIAA1704 /// LOC100996395 / Fold change vs veh, KIAA1704 /// LOC100996395 / RFU, ING1 / Fold change vs veh, ING1 / RFU, TRMT61B / Fold change vs veh, TRMT61B / RFU, FUBP3 / Fold change vs veh, FUBP3 / RFU, TP53 / Fold change vs veh, TP53 / RFU, TNKS2 / Fold change vs veh, TNKS2 / RFU, ZFP14 / Fold change vs veh, ZFP14 / RFU, ACTR2 / Fold change vs veh, ACTR2 / RFU, PPP3R1 / Fold change vs veh, PPP3R1 / RFU, PIK3R1 / Fold change vs veh, PIK3R1 / RFU, HNRNPA1 / Fold change vs veh, HNRNPA1 / RFU, RNF170 / Fold change vs veh, RNF170 / RFU, ZNF28 / Fold change vs veh, ZNF28 / RFU, RNGTT / Fold change vs veh, RNGTT / RFU, OGT / Fold change vs veh, OGT / RFU, BRD1 / Fold change vs veh, BRD1 / RFU, MARS / Fold change vs veh, MARS / RFU, ZNF655 / Fold change vs veh, ZNF655 / RFU, FAHD1 / Fold change vs veh, FAHD1 / RFU, BDP1 / Fold change vs veh, BDP1 / RFU, LRRCC1 / Fold change vs veh, LRRCC1 / RFU, ARID1A / Fold change vs veh, ARID1A / RFU, ZNF146 / Fold change vs veh, ZNF146 / RFU, ZNF330 / Fold change vs veh, ZNF330 / RFU, GPN3 / Fold change vs veh, GPN3 / RFU, C9orf123 / Fold change vs veh, C9orf123 / RFU, N4BP2L2 / Fold change vs veh, N4BP2L2 / RFU, ARFIP1 / Fold change vs veh, ARFIP1 / RFU, FAM179B / Fold change vs veh, FAM179B / RFU, BCL10 / Fold change vs veh, BCL10 / RFU, UHRF1BP1L / Fold change vs veh, UHRF1BP1L / RFU, BET1 / Fold change vs veh, BET1 / RFU, CNOT2 / Fold change vs veh, CNOT2 / RFU, ZNF268 / Fold change vs veh, ZNF268 / Fold change vs veh, ZNF507 / RFU, DGCR2 / Fold change vs veh, DGCR2 / RFU, WDSUB1 / Fold change vs veh, WDSUB1 / Fold change vs veh, HSP90B1 /// MIR3652 / RFU, ADSS / Fold change vs veh, ADSS / RFU, GK / Fold change vs veh, GK / RFU, ZNF148 / Fold change vs veh, ZNF148 / RFU, TAF9 / Fold change vs veh, TAF9 / RFU, SLC1A5 / Fold change vs veh, SLC1A5 / RFU, SLMO2 / Fold change vs veh, SLMO2 / RFU, ABCC4 / Fold change vs veh, ABCC4 / RFU, LOC101060439 /// RAP1B / Fold change vs veh, LOC101060439 /// RAP1B / RFU, RFX7 / Fold change vs veh, RFX7 / RFU, GTPBP10 / Fold change vs veh, GTPBP10 / RFU, CNEP1R1 / Fold change vs veh, CNEP1R1 / RFU, BIVM-ERCC5 /// ERCC5 / Fold change vs veh, BIVM-ERCC5 /// ERCC5 / RFU, ILF3 / Fold change vs veh, ILF3 / RFU 11762660_at / Fold change /veh 11762660_at / RFU VCAN (11757783_s_at) / Fold change /veh VCAN (11757783_s_at) / RFU DDX43 (11728927_at) / Fold change /veh DDX43 (11728927_at) / RFU KRT8 (11758188_x_at) / Fold change /veh KRT8 (11758188_x_at) / RFU NKD1 (11759106_at) / Fold change /veh NKD1 (11759106_at) / RFU SRD5A1 (11742802_a_at) / Fold change /veh SRD5A1 (11742802_a_at) / RFU TPSAB1 /// TPSB2 (11721975_s_at) / Fold change /veh TPSAB1 /// TPSB2 (11721975_s_at) / RFU GSTM3 (11746129_a_at) / Fold change /veh GSTM3 (11746129_a_at) / RFU IL23R (11737362_x_at) / Fold change /veh IL23R (11737362_x_at) / RFU TMEM51 (11727254_a_at) / Fold change /veh TMEM51 (11727254_a_at) / RFU PIWIL2 (11732686_x_at) / Fold change /veh PIWIL2 (11732686_x_at) / RFU ORM1 (11744905_x_at) / Fold change /veh ORM1 (11744905_x_at) / RFU CCDC152 (11743942_at) / Fold change /veh CCDC152 (11743942_at) / RFU ECM1 (11717891_a_at) / Fold change /veh ECM1 (11717891_a_at) / RFU IL23R (11748794_a_at) / Fold change /veh IL23R (11748794_a_at) / RFU TNFAIP8L3 (11732012_x_at) / Fold change /veh TNFAIP8L3 (11732012_x_at) / RFU MBOAT4 (11741988_at) / Fold change /veh MBOAT4 (11741988_at) / RFU 11764193_at / Fold change /veh 11764193_at / RFU TMEM53 (11763286_at) / Fold change /veh TMEM53 (11763286_at) / RFU MAGEB2 (11727129_at) / Fold change /veh MAGEB2 (11727129_at) / RFU TMEM200A (11744735_a_at) / Fold change /veh TMEM200A (11744735_a_at) / RFU CCDC152 (11751479_a_at) / Fold change /veh CCDC152 (11751479_a_at) / RFU FAM211A (11726209_a_at) / Fold change /veh FAM211A (11726209_a_at) / RFU RGS16 (11746705_a_at) / Fold change /veh RGS16 (11746705_a_at) / RFU VCAN (11755009_s_at) / Fold change /veh VCAN (11755009_s_at) / RFU RHOB (11743442_s_at) / Fold change /veh RHOB (11743442_s_at) / RFU RGS16 (11720943_a_at) / Fold change /veh RGS16 (11720943_a_at) / RFU RGS16 (11720944_at) / Fold change /veh RGS16 (11720944_at) / RFU, VPS4B / Fold change vs veh, VPS4B / RFU, CREB1 / Fold change vs veh, CREB1 / RFU, DNAJC13 / Fold change vs veh, DNAJC13 / RFU, GNAQ / Fold change vs veh, GNAQ / RFU, CDK5R1 / Fold change vs veh, CDK5R1 / RFU, ZRANB3 / Fold change vs veh, ZRANB3 / RFU, CUL4A / Fold change vs veh, CUL4A / RFU, CCNY / Fold change vs veh, CCNY / RFU, UFL1 / Fold change vs veh, UFL1 / RFU, COG3 / Fold change vs veh, COG3 / RFU, DIAPH2 / Fold change vs veh, DIAPH2 / RFU, SKA2 / Fold change vs veh, SKA2 / RFU, AFF3 / Fold change vs veh, AFF3 / RFU, LMF1 / Fold change vs veh, LMF1 / RFU, IPO11 / Fold change vs veh, IPO11 / RFU, DFFB / Fold change vs veh, DFFB / RFU, FOXP1 / Fold change vs veh, FOXP1 / RFU, CARD8 / Fold change vs veh, CARD8 / RFU, STRN3 / Fold change vs veh, STRN3 / RFU, ADK / Fold change vs veh, ADK / RFU, RASSF2 / Fold change vs veh, RASSF2 / RFU, WIPF1 / Fold change vs veh, WIPF1 / RFU, LARP1B / Fold change vs veh, LARP1B / RFU, RASA1 / Fold change vs veh, RASA1 / RFU, RB1 / Fold change vs veh, RB1 / RFU, PPFIA1 / Fold change vs veh, PPFIA1 / RFU, MAT2A / Fold change vs veh, MAT2A / RFU, CCT5 / Fold change vs veh, CCT5 / RFU, WDR92 / Fold change vs veh, WDR92 / RFU, CUX1 / Fold change vs veh, CUX1 / RFU, TTC7A / Fold change vs veh, TTC7A / RFU, TMEM135 / Fold change vs veh, TMEM135 / RFU, DEPTOR / Fold change vs veh, DEPTOR / RFU, CPM / Fold change vs veh, CPM / RFU, DNAJB6 / Fold change vs veh, DNAJB6 / RFU, CACNA2D3 / Fold change vs veh, CACNA2D3 / RFU, DTX4 / Fold change vs veh, DTX4 / RFU, TFCP2 / Fold change vs veh, TFCP2 / RFU, GMCL1 /// GMCL1P1 / Fold change vs veh, GMCL1 /// GMCL1P1 / RFU, AEBP2 / Fold change vs veh, AEBP2 / RFU, SNHG1 /// SNORD22 /// SNORD25 /// SNORD26 /// SNORD27 /// SNORD28 /// SNORD29 /// SNORD31 / Fold change vs veh, SNHG1 /// SNORD22 /// SNORD25 /// SNORD26 /// SNORD27 /// SNORD28 /// SNORD29 /// SNORD31 / Fold change (Aza/veh), C12orf56 (ProbeSet 11735607_a_at) / Fold change (ACY-1035/veh), C12orf56 (ProbeSet 11735607_a_at) / Fold change (Aza/veh), FGFR1OP (ProbeSet 11751329_s_at) / Fold change (ACY-1035/veh), FGFR1OP (ProbeSet 11751329_s_at) / Fold change (Aza/veh), VPS36 (ProbeSet 11739960_a_at) / Fold change (ACY-1035/veh), VPS36 (ProbeSet 11739960_a_at) / RFU SYPL1 (11715823_x_at) / Fold change /veh SYPL1 (11715823_x_at) / RFU IGFBP7 (11715501_s_at) / Fold change /veh IGFBP7 (11715501_s_at) / RFU REEP3 (11722064_at) / Fold change /veh REEP3 (11722064_at) / RFU IGLL1 (11728026_x_at) / Fold change /veh IGLL1 (11728026_x_at): dose or concentration left out as unconfirmed
Conditions: MV-4-11 cells, 48 hours

SMILES: Nc1ccc(-c2cccs2)cc1NC(=O)c1ccc2c(c1)cc(C1CC1)n2CCN1CCOCC1 [ACY-1035]
- RFU OR4N2 (11742367_at): 72.30 RFU
